Source: patent US20250129184A1, “TARGETED ANTICOAGULANT” (Northwestern University, priority 2016, published 2025)
Where no end group is shown, it is not given here.

Experiments:
fibrin = assay: peptide binding to protein-coated polystyrene surfaces (fibrin); details: biotinylated peptide vs scrambled CERAK; protein 10 μg/cm^2; overnight; fluorophore-conjugated streptavidin
Procedure: (§1) During the development of embodiments of the technology provided herein, experiments were conducted to assess the binding specificity of the CREKA peptides towards fibrin and non-target components. […] Proteins were applied to uncoated polystyrene surfaces at 10 μg/cm^2 and washed with PBS three times to remove unbound protein. A range of concentrations of biotinylated CREKA and biotinylated CERAK were incubated with the treated surfaces overnight, then washed three times the next day to remove the unbound peptides. The peptides remaining on the protein-coated surfaces were quantified using fluorophore-conjugated streptavidin. […] These properties of the heparin-CREKA compounds indicate that heparin-CREKA is appropriate for administration by intravenous injection.

fibrinogen = target: T1, fibrinogen (Homo sapiens, UniProt P02671+P02675+P02679); assay: peptide binding to protein-coated polystyrene surfaces (fibrinogen); details: biotinylated peptide; common blood plasma protein
T1 sequence (P02671 20-629 limits assumed): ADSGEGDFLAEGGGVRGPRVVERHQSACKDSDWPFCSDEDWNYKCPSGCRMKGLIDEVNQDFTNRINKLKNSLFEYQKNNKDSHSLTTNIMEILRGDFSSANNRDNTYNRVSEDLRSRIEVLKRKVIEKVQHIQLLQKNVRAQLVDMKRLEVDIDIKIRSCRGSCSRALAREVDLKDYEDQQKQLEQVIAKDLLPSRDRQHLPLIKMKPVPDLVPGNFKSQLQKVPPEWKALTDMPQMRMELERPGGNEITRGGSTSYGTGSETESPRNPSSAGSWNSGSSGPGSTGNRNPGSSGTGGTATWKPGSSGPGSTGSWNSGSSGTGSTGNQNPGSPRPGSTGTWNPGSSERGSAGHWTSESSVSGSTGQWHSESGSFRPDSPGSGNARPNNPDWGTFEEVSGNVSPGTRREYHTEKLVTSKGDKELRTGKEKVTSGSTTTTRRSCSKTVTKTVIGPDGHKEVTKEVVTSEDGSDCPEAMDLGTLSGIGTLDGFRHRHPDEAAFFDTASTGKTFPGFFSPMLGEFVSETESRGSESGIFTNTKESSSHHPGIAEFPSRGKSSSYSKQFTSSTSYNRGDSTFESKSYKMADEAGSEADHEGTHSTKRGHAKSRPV
T1 sequence (P02675 31-491): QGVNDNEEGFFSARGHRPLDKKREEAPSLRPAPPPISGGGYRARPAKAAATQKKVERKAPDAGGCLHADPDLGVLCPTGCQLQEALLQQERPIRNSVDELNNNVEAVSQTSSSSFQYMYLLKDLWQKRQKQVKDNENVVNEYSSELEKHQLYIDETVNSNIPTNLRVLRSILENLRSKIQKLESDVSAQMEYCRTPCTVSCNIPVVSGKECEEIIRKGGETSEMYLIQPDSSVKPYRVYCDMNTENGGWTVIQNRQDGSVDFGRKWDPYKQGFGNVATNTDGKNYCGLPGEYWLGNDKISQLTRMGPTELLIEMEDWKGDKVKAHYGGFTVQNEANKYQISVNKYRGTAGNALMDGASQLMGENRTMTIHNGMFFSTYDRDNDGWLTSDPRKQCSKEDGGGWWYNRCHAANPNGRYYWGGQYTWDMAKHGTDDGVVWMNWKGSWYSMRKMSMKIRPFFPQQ
T1 sequence (P02679 27-433 limits assumed): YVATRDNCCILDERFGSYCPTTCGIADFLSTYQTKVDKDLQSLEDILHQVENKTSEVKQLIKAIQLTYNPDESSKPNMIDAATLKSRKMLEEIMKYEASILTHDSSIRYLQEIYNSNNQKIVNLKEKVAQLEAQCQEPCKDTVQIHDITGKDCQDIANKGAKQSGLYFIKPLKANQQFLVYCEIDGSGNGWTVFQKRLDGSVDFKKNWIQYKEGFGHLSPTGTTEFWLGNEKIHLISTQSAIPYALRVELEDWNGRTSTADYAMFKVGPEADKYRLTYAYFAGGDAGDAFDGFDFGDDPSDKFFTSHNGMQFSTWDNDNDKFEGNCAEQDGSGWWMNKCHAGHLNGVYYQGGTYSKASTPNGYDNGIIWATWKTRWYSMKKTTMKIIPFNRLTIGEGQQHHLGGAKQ
Procedure: as §1

albumin = albumin (Homo sapiens, UniProt P02768); assay: peptide binding to protein-coated polystyrene surfaces (albumin); details: biotinylated peptide; common blood plasma protein
Procedure: as §1

[1] = test system: ePTFE graft in abdominal aorta; assay: rat abdominal aorta interposition model with ePTFE graft; format: in vivo, Sprague Dawley rats; details: two intravenous doses, 24 hours; middle_3 and distal segments
Procedure: During the development of embodiments of the technology provided herein, experiments were conducted to evaluate the in vivo performance of the heparin-CREKA relative to conventional clinically used heparin. In particular, heparin-CREKA was studied in a rat abdominal aorta interposition model. Briefly, male Sprague Dawley rats (200-500 g) were anesthetized by a ketamine/xylazine cocktail. The abdomen of the anesthetized rat was entered through a midline incision. The abdominal aorta was exposed (FIG. 7, Panel A), clamped in both proximal and distal regions using micro-vessel clips, and then excised between the clamps (FIG. 7, Panel B). A segment (e.g., approximately 1 cm in length; 1.524±0.05 mm in diameter) of expanded polytetrafluoroethylene (ePTFE) was used as a graft. The graft was connected to the abdominal aorta using an end-to-end anastomosis technique with interrupted stitches at each end (FIG. 7, Panel C). Following reperfusion of blood flow through the graft, one dose of anti-coagulant (heparin or heparin-CREKA) was given systemically via intravenous injection. The incision was then closed in layers. 24 hours after the initial implantation surgeries and immediately prior to sacrifice of the test […], a second dose of […] (heparin or heparin-CREKA) was administered systemically via intravenous injection. […]

Pig whole blood = assay: whole blood clotting assay on fibrin coated plates; format: cell-based; details: fibrin coated 96-well plates pre-treated 30 minutes, washed three times with PBS; re-calcified blood; absorbance 405 nm
Procedure: During the development of embodiments of the technology provided herein, experiments were conducted to test the anti-coagulant activity of embodiments of the heparin-CREKA compounds described herein. In particular, the heparin-CREKA compounds were evaluated by a whole blood clotting assay and a platelet adhesion assay (FIGS. 4 and 5). Pig whole blood was collected into acid citrate dextrose (ACD) anticoagulant. Fibrin coated 96-well plates were pre-treated with phosphate-buffered saline (PBS), heparin, or heparin-CREKA for 30 minutes at room temperature, then followed with three washes with PBS prior to the test. The wash removes unbound heparin or heparin-CREKA from the surfaces. Control experiments included tests of tissue culture treated and untreated polystyrene 96 well plates. […] The coagulation process was monitored at each selected time point by adding 150 μl of deionized water into each well to lyse the unclotted red blood cells. The lysate was then transferred into a new plate and the absorbance was measured at a wavelength of 405 nm. Higher absorbance represents more unclotted red blood cells and better anti-coagulation effect. The anti-coagulant effect of heparin-CREKA was detected up to 60 minutes while the effect of the conventional heparin was undetectable 20 minutes after contacting the blood (FIG. 4).

graft site = assay: in vivo dosing studies, anti-coagulant effect at the graft site by imaging
Procedure: During the development of embodiments of the technology provided herein, experiments were conducted to study the in vivo binding and pharmacology response of the embodiments of heparin-CREKA. In particular, data were collected from three animal studies in which the dosing period was varied. Study 1—animals were scarified 24 hours after the initial surgery and 2 doses of heparin-CREKA or control heparin-CERAK were administrated by intravenous injection during the 24 hour period. The first dose was administered immediately after the surgery (e.g., after re-establishing blood flow at the graft area). The second dose was administered 6 hours prior to euthanizing the animal. Imaging data were collected and analyzed to evaluate the anti-coagulant effect of heparin-CREKA at the graft site. […] Study 2—animals were kept alive for 7 days after surgery and one dose of heparin-CREKA or control heparin-CERAK was administrated by intravenous injection immediately after the surgery (e.g., after re-establishing blood flow at the graft area). In contrast to Study 1, no additional dose was given after the first dose. Imaging data were collected and analyzed to evaluate the anti-coagulant effect of heparin-CREKA at the graft site. […] Study 3—animals were kept alive for 7 days after surgery and two doses of heparin-CREKA or control heparin-CERAK were administrated by intravenous injection during the 7 day period. The first dose was administered immediately after the surgery (e.g., after re-establishing blood flow at the graft area). The second dose was administered 6 hours before euthanizing the animal. Imaging data were collected and analyzed to evaluate the anti-coagulant effect of heparin-CREKA at the graft site.

platelets = assay: platelet adhesion assay using platelet-rich plasma on fibrin surfaces; format: cell-based; details: compared to bare fibrin surface; at a lower concentration than heparin; PRP 1:10, 37° C., 60 minutes; LDH readout
Procedure: Next, during the development of embodiments of the technology provided herein, experiments were conducted to test the anticoagulation activity of embodiments of the heparin-CREKA compounds described herein. In particular, a platelet adhesion assay was performed using platelet-rich plasma (PRP). Surfaces were treated with various concentrations of heparin or heparin-CREKA as described above. PRP, diluted 1:10 in PBS, was incubated at 37° C. for 60 minutes with the samples and gently rinsed with warm PBS. The number of adherent platelets was determined by detecting the amount of lactate dehydrogenase (LDH) present after cell lysis. Briefly, adherent platelets were lysed by incubation with 2% Triton-PSB buffer for 30 minutes at 37° C. A colorimetric substrate for LDH was added and incubated for 20 minutes at 37° C. The optical density was measured at a wavelength of 490 nm. A calibration curve was generated from a series of serial dilutions of a known platelet concentration and used to determine the number of adhered platelets.

CREKA-fibrin binding (fibrin)	binding to fibrinogen (fibrinogen)	binding to albumin (albumin)	Substance	clotting in the grafts (histology) [1]	time for which the anti-coagulant effect was detected after contacting the blood (Pig whole blood)	anti-coagulant effect at the graft site relative to heparin-CERAK (graft site; Study 1: 24 hours, 2 intravenous doses (after surgery and 6 hours prior to euthanizing))	anti-coagulant effect at the graft site relative to heparin-CERAK (graft site; Study 2: 7 days, one intravenous dose immediately after surgery)	anti-coagulant effect at the graft site relative to heparin-CERAK (graft site; Study 3: 7 days, two intravenous doses (after surgery and 6 hours before euthanizing))	amount of adhered platelets (platelets)
highly specific	very weakly	very weakly	Cys-Arg-Glu-Lys-Ala (CREKA; also: biotinylated, site not given here) [tested in biotinylated form]						
			heparin [reference compound]	major clotting	< 20 min				
			heparin-CREKA: heparin covalently linked through a BMPH linker to the fibrin binding peptide Cys-Arg-Glu-Lys-Ala (CREKA) (also: heparin linked via BMPH linker, site not given here)	remained clean	up to 60 minutes	significant improvement	only a very small difference	significant improvement	significantly reduced
